Article PMC9856672, “SGC-CAMKK2-1: A Chemical Probe for CAMKK2” (Cells, 2023)

How the values were obtained:
[1] = target: T1, NLuc-CAMKK2 (kinase domain) in HEK293 cells (Homo sapiens, UniProt Q96RR4); experiment: CAMKK2 NanoBRET in-cell target engagement assay; format: cell-based; conditions: HEK293 cells transiently transfected with NLuc-CAMKK2
T1 construct: this assay utilizes a nanoluciferase (NL) fused to the kinase domain of CAMKK2; expressed in transfected cells; host or cells: HEK293
Procedure: CAMKK2 NanoBRET assay: To quantify the cellular activity of these inhibitors we developed a CAMKK2 NanoBRET target engagement assay [51, 52]. Briefly this assay utilizes a nanoluciferase (NL) fused to the kinase domain of CAMKK2. This NL kinase fusion is then transiently transfected into HEK293 cells and after 24 h, tracer is added to the cells. When the tracer and the NL-CAMKK2 fusion come into proximity they create a BRET signal that can be competed in a dose-dependent manner by the addition of cell-penetrant CAMKK2 inhibitors.
To evaluate this, we developed a NanoBRET in-cell target engagement assay. For this assay, the CAMKK2 kinase domain fused with a Nanoluciferase (NLuc) tag is transiently transfected into HEK293 cells. After 24 h, a heterobifunctional molecule that consists of an inhibitor that binds to CAMKK2 linked to a BODIPY dye is added to the cells. When the inhibitor–dye hybrid binds to the kinase, the proximity to the NLuc fused to CAMKK2 creates a BRET signal. This signal can then be competed away in a dose-dependent fashion with free inhibitor.

TIE2 = target: T2, TIE2 (Homo sapiens, UniProt Q02763); experiment: KINOMEscan 1 μM, TIE2; format: binding; conditions: 1000 nM; Entrez TEK; read-out: Percent Control
T2 construct: purchased Eurofins DiscoverX KINOMEscan
From the text: (§1) Supplement cells-12-00287-s001.zip/File S2. KinomeScan data for the CAMKK2 probe and negative control.xlsx, sheet "SGC-CAMKK2-1" | column: Percent Control

MTOR = target: T3, MTOR (Homo sapiens, UniProt P42345); experiment: KINOMEscan 1 μM, MTOR; format: binding; conditions: 1000 nM; Entrez MTOR; read-out: Percent Control
T3 construct: purchased Eurofins DiscoverX KINOMEscan
From the text: as §1

MST4 = target: T4, MST4 (Homo sapiens, UniProt Q9P289); experiment: KINOMEscan 1 μM, MST4; format: binding; conditions: 1000 nM; Entrez MST4; read-out: Percent Control
T4 construct: purchased Eurofins DiscoverX KINOMEscan
T4 sequence (Q9P289 whole entry): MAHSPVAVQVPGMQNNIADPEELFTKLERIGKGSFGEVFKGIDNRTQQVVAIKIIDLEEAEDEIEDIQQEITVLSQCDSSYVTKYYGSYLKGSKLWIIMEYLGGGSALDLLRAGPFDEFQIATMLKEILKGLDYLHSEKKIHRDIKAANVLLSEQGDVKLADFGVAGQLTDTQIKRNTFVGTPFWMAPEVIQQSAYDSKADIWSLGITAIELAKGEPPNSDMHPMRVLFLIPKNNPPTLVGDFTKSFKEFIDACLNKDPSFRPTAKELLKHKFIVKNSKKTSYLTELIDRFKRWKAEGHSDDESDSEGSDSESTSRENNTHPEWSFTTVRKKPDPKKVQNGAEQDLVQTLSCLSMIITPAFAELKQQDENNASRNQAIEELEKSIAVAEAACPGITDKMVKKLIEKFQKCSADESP
From the text: as §1

[2] = target: T5, ABL1(E255K)-phosphorylated (Homo sapiens, UniProt P00519, E255K); experiment: KINOMEscan 1 μM, ABL1(E255K)-phosphorylated; format: binding; conditions: 1000 nM; Entrez ABL1; read-out: Percent Control
T5 construct: purchased Eurofins DiscoverX KINOMEscan
From the text: as §1

YANK3 = target: T6, YANK3 (Homo sapiens, UniProt Q86UX6); experiment: DiscoverX KINOMEscan binding assay at 1 μM, YANK3; conditions: YANK3 (STK32C); Compound Concentration 1000 nM; read-out: Percent Control
T6 construct: purchased Eurofins DiscoverX KINOMEscan
From the text: as §1

PKNB(M.tuberculosis) = target: T7, PKNB(M.tuberculosis) (Mycobacterium tuberculosis, UniProt P9WI81); experiment: KINOMEscan 1 μM, PKNB(M.tuberculosis); format: binding; conditions: 1000 nM; Entrez pknB; read-out: Percent Control
T7 construct: purchased Eurofins DiscoverX KINOMEscan
From the text: as §1

CSNK1G1 = target: T8, CSNK1G1 (Homo sapiens, UniProt Q9HCP0); experiment: KINOMEscan 1 μM, CSNK1G1; format: binding; conditions: 1000 nM; Entrez CSNK1G1; read-out: Percent Control
T8 construct: purchased Eurofins DiscoverX KINOMEscan
From the text: as §1

STK35 = target: T9, STK35 (Homo sapiens, UniProt Q8TDR2); experiment: KINOMEscan 1 μM, STK35; format: binding; conditions: 1000 nM; Entrez STK35; read-out: Percent Control
T9 construct: purchased Eurofins DiscoverX KINOMEscan
From the text: as §1

MARK3 = target: T10, MARK3 (Homo sapiens, UniProt P27448); experiment: KINOMEscan 1 μM, MARK3; format: binding; conditions: 1000 nM; Entrez MARK3; read-out: Percent Control
T10 construct: purchased Eurofins DiscoverX KINOMEscan
From the text: as §1

CSNK2A2 = target: T11, CSNK2A2 (Homo sapiens, UniProt P19784); experiment: KINOMEscan 1 μM, CSNK2A2; format: binding; conditions: 1000 nM; Entrez CSNK2A2; read-out: Percent Control
T11 construct: purchased Eurofins DiscoverX KINOMEscan
From the text: as §1

CSF1R = target: T12, CSF1R (Homo sapiens, UniProt P07333); experiment: KINOMEscan 1 μM, CSF1R; format: binding; conditions: 1000 nM; Entrez CSF1R; read-out: Percent Control
T12 construct: purchased Eurofins DiscoverX KINOMEscan
T12 sequence (P07333 20-972): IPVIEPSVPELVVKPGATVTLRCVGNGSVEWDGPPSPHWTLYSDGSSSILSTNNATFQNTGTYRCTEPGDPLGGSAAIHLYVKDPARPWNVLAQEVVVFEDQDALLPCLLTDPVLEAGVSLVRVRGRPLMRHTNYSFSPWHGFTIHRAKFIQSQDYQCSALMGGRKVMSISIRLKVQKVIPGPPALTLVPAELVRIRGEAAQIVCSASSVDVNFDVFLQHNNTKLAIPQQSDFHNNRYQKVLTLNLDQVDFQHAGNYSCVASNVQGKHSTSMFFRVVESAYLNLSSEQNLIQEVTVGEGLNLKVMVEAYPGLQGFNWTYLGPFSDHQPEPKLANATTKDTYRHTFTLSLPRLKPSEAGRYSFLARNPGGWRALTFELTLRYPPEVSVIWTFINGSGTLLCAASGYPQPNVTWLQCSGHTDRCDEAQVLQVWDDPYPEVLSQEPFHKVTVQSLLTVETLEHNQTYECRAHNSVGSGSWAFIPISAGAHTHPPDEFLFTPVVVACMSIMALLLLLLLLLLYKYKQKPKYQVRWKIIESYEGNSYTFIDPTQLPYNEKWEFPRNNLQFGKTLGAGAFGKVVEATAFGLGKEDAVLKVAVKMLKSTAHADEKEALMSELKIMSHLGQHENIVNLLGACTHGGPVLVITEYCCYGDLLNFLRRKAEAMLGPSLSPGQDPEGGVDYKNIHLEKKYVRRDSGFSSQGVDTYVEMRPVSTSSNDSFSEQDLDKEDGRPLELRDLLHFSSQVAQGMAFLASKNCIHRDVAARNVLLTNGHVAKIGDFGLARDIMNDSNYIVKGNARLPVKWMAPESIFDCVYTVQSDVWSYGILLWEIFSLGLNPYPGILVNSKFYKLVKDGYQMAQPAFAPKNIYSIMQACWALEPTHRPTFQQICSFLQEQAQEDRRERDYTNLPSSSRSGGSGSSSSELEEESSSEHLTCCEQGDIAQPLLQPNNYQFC
From the text: as §1

CAMK4 = target: T13, CAMK4 (Homo sapiens, UniProt Q16566); experiment: KINOMEscan 1 μM, CAMK4; format: binding; conditions: 1000 nM; Entrez CAMK4; read-out: Percent Control
T13 construct: purchased Eurofins DiscoverX KINOMEscan
From the text: as §1

MLK1 = target: T14, MLK1 (Homo sapiens, UniProt P80192); experiment: KINOMEscan 1 μM, MLK1; format: binding; conditions: 1000 nM; Entrez MAP3K9; read-out: Percent Control
T14 construct: purchased Eurofins DiscoverX KINOMEscan
From the text: as §1

BRSK1 = target: T15, BRSK1 (Homo sapiens, UniProt Q8TDC3); experiment: KINOMEscan at 1 μM, BRSK1; format: binding; conditions: 1000 nM, read-out: Percent Control
T15 construct: purchased Eurofins DiscoverX KINOMEscan
From the text: (§2) Supplement cells-12-00287-s001.zip/File S2. KinomeScan data for the CAMKK2 probe and negative control.xlsx, sheet "SGC-CAMKK2-1N" | column: Percent Control

NEK11 = target: T16, NEK11 (Homo sapiens, UniProt Q8NG66); experiment: KINOMEscan at 1 μM, NEK11; format: binding; conditions: 1000 nM, read-out: Percent Control
T16 construct: purchased Eurofins DiscoverX KINOMEscan
From the text: as §2

DMPK = target: T17, DMPK (Homo sapiens, UniProt Q09013); experiment: KINOMEscan at 1 μM, DMPK; format: binding; conditions: 1000 nM, read-out: Percent Control
T17 construct: purchased Eurofins DiscoverX KINOMEscan
T17 sequence (Q09013 whole entry): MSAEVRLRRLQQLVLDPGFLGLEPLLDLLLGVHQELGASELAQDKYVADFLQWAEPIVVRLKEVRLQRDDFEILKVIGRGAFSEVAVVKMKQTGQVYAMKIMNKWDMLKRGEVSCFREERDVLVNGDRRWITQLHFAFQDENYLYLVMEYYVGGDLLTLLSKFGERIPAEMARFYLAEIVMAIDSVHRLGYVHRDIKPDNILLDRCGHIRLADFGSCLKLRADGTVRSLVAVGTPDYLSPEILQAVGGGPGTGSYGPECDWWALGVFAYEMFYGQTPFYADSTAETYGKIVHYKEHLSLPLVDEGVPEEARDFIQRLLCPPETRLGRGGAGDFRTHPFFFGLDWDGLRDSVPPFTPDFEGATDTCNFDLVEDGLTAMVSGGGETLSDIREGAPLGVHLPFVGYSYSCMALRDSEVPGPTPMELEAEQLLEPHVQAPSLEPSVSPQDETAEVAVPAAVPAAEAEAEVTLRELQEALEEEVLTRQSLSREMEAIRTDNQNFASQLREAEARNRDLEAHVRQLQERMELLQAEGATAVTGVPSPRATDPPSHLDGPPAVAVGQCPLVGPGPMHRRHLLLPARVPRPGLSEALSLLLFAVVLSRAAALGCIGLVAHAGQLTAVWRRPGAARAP
From the text: as §2

PRKD2 = target: T18, PRKD2 (Homo sapiens, UniProt Q9BZL6); experiment: KINOMEscan at 1 μM, PRKD2; format: binding; conditions: 1000 nM, read-out: Percent Control
T18 construct: purchased Eurofins DiscoverX KINOMEscan
From the text: as §2

ANKK1 = target: T19, ANKK1 (Homo sapiens, UniProt Q8NFD2); experiment: KINOMEscan at 1 μM, ANKK1; format: binding; conditions: 1000 nM, read-out: Percent Control
T19 construct: purchased Eurofins DiscoverX KINOMEscan
T19 sequence (Q8NFD2 whole entry): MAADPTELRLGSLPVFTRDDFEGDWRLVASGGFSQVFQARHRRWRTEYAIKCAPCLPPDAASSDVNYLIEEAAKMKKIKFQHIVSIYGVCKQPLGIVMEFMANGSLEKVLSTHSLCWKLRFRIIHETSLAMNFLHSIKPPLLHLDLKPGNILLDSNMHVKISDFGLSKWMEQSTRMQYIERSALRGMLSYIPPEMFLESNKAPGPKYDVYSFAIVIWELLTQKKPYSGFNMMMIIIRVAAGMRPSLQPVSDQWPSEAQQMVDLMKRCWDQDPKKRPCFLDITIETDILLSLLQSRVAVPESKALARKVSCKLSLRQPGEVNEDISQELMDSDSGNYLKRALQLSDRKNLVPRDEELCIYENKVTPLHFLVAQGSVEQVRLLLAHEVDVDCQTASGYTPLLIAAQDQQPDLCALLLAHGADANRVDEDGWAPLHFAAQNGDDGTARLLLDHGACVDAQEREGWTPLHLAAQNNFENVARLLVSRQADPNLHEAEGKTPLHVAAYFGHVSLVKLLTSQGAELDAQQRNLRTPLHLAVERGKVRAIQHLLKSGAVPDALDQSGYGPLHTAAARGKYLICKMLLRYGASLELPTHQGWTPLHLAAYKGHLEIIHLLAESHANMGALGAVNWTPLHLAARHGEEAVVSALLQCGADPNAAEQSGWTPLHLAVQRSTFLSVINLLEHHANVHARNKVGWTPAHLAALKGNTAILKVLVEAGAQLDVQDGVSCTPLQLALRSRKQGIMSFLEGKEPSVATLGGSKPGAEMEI
From the text: as §2

AKT2 = target: T20, AKT2 (Homo sapiens, UniProt P31751); experiment: KINOMEscan at 1 μM, AKT2; format: binding; conditions: 1000 nM, read-out: Percent Control
T20 construct: purchased Eurofins DiscoverX KINOMEscan
From the text: as §2

EGFR(L861Q) = target: T21, EGFR(L861Q) (Homo sapiens, UniProt P00533, L861Q); experiment: KINOMEscan binding assay at 1 μM, EGFR(L861Q); conditions: Compound Concentration 1000 nM; read-out: Percent Control
T21 construct: purchased Eurofins DiscoverX KINOMEscan
From the text: as §2

KIT-autoinhibited = target: T22, KIT-autoinhibited (Homo sapiens, UniProt P10721); experiment: KINOMEscan at 1 μM, KIT-autoinhibited; format: binding; conditions: 1000 nM, read-out: Percent Control
T22 construct: purchased Eurofins DiscoverX KINOMEscan
From the text: as §2

LTK = target: T23, LTK (Homo sapiens, UniProt P29376); experiment: KINOMEscan binding assay at 1 μM, LTK; conditions: Compound Concentration 1000 nM; read-out: Percent Control
T23 construct: purchased Eurofins DiscoverX KINOMEscan
From the text: as §2

PIK3CA(Q546K) = target: T24, PIK3CA(Q546K) (Homo sapiens, UniProt P42336, Q546K); experiment: KINOMEscan at 1 μM, PIK3CA(Q546K); format: binding; conditions: 1000 nM, read-out: Percent Control
T24 construct: purchased Eurofins DiscoverX KINOMEscan
From the text: as §2

CSNK1A1L = target: T25, CSNK1A1L (Homo sapiens, UniProt Q8N752); experiment: KINOMEscan at 1 μM, CSNK1A1L; format: binding; conditions: 1000 nM, read-out: Percent Control
T25 construct: purchased Eurofins DiscoverX KINOMEscan
T25 sequence (Q8N752 whole entry): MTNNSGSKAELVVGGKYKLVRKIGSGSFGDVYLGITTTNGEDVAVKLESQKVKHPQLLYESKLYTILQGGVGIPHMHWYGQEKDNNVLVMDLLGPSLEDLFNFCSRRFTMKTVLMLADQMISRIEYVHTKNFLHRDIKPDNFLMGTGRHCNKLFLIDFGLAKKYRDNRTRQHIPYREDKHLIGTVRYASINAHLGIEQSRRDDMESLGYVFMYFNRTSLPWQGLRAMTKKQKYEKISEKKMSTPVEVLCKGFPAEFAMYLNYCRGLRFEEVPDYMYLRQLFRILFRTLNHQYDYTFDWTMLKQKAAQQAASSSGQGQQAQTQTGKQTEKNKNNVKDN
From the text: as §2

ERK2 = target: T26, ERK2 (Homo sapiens, UniProt P28482); experiment: KINOMEscan binding assay at 1 μM, ERK2; conditions: Compound Concentration 1000 nM; read-out: Percent Control
T26 construct: purchased Eurofins DiscoverX KINOMEscan
From the text: as §2

[3] = target: T27, EGFR(L747-E749del, A750P) (Homo sapiens, UniProt P00533, A750P/DEL747-749); experiment: KINOMEscan binding assay at 1 μM, EGFR(L747-E749del, A750P); conditions: Compound Concentration 1000 nM; read-out: Percent Control
T27 construct: purchased Eurofins DiscoverX KINOMEscan
From the text: as §2

SLK = target: T28, SLK (Homo sapiens, UniProt Q9H2G2); experiment: KINOMEscan binding assay at 1 μM, SLK; conditions: Compound Concentration 1000 nM; read-out: Percent Control
T28 construct: purchased Eurofins DiscoverX KINOMEscan
T28 sequence (Q9H2G2 whole entry): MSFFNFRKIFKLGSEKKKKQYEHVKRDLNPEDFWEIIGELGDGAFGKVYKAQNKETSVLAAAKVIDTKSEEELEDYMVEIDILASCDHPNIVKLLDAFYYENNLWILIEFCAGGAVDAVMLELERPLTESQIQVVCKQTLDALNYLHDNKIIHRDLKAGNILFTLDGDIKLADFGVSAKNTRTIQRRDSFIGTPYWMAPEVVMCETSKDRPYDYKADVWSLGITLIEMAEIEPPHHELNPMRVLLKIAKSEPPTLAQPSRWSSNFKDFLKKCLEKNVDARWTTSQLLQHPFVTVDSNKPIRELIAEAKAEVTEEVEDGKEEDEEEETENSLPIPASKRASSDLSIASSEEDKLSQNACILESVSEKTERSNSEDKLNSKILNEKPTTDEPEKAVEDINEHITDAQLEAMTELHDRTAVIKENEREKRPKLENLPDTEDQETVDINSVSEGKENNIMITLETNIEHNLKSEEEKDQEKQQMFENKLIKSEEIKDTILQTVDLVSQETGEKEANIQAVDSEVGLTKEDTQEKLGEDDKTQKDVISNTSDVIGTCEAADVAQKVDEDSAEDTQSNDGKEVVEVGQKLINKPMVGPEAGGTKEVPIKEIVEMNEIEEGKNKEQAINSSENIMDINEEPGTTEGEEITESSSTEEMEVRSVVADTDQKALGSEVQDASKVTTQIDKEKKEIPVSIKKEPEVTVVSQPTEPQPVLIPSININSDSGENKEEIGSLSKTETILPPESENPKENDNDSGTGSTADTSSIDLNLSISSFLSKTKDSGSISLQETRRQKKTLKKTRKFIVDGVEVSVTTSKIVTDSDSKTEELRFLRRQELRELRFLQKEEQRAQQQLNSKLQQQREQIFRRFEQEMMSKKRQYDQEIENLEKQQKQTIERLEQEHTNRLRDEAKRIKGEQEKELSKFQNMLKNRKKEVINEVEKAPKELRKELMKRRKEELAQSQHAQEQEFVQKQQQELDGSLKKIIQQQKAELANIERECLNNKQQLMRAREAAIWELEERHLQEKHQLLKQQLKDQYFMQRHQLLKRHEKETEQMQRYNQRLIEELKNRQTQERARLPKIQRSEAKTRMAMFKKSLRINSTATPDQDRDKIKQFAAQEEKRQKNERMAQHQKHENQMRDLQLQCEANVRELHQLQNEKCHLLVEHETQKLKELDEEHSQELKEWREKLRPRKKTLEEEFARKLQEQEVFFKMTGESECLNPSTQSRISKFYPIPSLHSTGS
From the text: as §2

TNK1 = target: T29, TNK1 (Homo sapiens, UniProt Q13470); experiment: KINOMEscan binding assay at 1 μM, TNK1; conditions: Compound Concentration 1000 nM; read-out: Percent Control
T29 construct: purchased Eurofins DiscoverX KINOMEscan
T29 sequence (Q13470 whole entry): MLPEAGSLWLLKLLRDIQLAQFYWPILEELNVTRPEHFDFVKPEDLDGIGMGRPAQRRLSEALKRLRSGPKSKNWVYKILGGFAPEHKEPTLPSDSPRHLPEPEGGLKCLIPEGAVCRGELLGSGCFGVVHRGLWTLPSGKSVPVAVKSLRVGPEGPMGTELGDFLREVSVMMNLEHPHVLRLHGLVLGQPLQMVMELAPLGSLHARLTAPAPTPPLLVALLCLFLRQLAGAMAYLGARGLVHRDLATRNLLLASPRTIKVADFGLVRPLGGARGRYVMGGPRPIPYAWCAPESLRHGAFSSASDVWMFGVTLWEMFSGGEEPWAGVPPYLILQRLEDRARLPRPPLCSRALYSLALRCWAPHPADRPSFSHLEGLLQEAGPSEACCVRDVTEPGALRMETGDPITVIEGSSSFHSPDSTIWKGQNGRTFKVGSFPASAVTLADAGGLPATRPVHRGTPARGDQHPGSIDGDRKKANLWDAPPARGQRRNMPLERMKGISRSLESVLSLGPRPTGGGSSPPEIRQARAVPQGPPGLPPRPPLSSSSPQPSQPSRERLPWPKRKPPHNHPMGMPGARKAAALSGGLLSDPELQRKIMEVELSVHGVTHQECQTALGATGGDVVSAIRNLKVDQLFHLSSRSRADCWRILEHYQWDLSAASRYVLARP
From the text: as §2

NEK1 = target: T30, NEK1 (Homo sapiens, UniProt Q96PY6); experiment: KINOMEscan at 1 μM, NEK1; format: binding; conditions: 1000 nM, read-out: Percent Control
T30 construct: purchased Eurofins DiscoverX KINOMEscan
From the text: as §2

ERN1 = target: T31, ERN1 (Homo sapiens, UniProt O75460); experiment: KINOMEscan at 1 μM, ERN1; format: binding; conditions: 1000 nM, read-out: Percent Control
T31 construct: purchased Eurofins DiscoverX KINOMEscan
From the text: as §2

KIT(V559D,T670I) = target: T32, KIT(V559D,T670I) (Homo sapiens, UniProt P10721, T670I/V559D); experiment: KINOMEscan binding assay at 1 μM, KIT(V559D,T670I); conditions: Compound Concentration 1000 nM; read-out: Percent Control
T32 construct: purchased Eurofins DiscoverX KINOMEscan
From the text: as §2

Cc1cccc(-c2cnc3occ(-c4ccc(C(=O)O)c(C5CCCC5)c4)c3c2)c1 [Compound 5]
IC50 [1]: 270 nM

Cc1cccc(-c2cnc3occ(-c4ccc(C(=O)O)c(C5CCCC5)c4)c3c2)c1 [SGC-CAMKK2-1 (YL-36)]
remaining binding at 1 µM (TIE2): 97%
remaining binding at 1 µM (MTOR): 98%
remaining binding at 1 µM (MST4): 100%
remaining binding at 1 µM [2]: 98%
remaining binding at 1 µM (YANK3): 100%
remaining binding at 1 µM (PKNB(M.tuberculosis)): 90%
remaining binding at 1 µM (CSNK1G1): 100%
remaining binding at 1 µM (STK35): 73%
remaining binding at 1 µM (MARK3): 100%
remaining binding at 1 µM (CSNK2A2): 100%
remaining binding at 1 µM (CSF1R): 100%
remaining binding at 1 µM (CAMK4): 100%
remaining binding at 1 µM (MLK1): 100%

O=C(O)c1ccc(-c2coc3ncc(-c4ccccc4)cc23)cc1Cl [SGC-CAMKK2-1N (UNC-YL-83)]
remaining binding at 1 µM (BRSK1): 92%
remaining binding at 1 µM (NEK11): 62%
remaining binding at 1 µM (DMPK): 72%
remaining binding at 1 µM (PRKD2): 91%
remaining binding at 1 µM (ANKK1): 78%
remaining binding at 1 µM (AKT2): 85%
remaining binding at 1 µM (EGFR(L861Q)): 100%
remaining binding at 1 µM (KIT-autoinhibited): 92%
remaining binding at 1 µM (LTK): 100%
remaining binding at 1 µM (PIK3CA(Q546K)): 73%
remaining binding at 1 µM (CSNK1A1L): 99%
remaining binding at 1 µM (ERK2): 100%
remaining binding at 1 µM [3]: 100%
remaining binding at 1 µM (SLK): 100%
remaining binding at 1 µM (TNK1): 100%
remaining binding at 1 µM (NEK1): 71%
remaining binding at 1 µM (ERN1): 76%
remaining binding at 1 µM (KIT(V559D,T670I)): 100%
